Data taken from patent US20060029544A1, “Receptor-binding cyclic peptides and methods of use” (The Regents of the University of California Office of …, priority 2004, published 2006).

How the values were obtained:
αvβ5 integrin = biological target: T1, αvβ5 integrin (Homo sapiens, UniProt P06756+P18084); experiment: ELISA: biotinylated vitronectin binding to captured soluble αvβ5-mFc in the presence of RGD peptides; settings: 20 μM peptide; 100% = signal without peptide
T1 construct: chimeras comprising the extracellular domain of αvβ3, αvβ5, α5β1, and αIIbβ3 linked to the Fc domain of either mouse IgG; purchased Celltech plc (supplied, no catalogue number); host or cells: unpurified hybridoma / tissue culture supernatant from secreting cells
T1 sequence (P06756 31-992 limits assumed): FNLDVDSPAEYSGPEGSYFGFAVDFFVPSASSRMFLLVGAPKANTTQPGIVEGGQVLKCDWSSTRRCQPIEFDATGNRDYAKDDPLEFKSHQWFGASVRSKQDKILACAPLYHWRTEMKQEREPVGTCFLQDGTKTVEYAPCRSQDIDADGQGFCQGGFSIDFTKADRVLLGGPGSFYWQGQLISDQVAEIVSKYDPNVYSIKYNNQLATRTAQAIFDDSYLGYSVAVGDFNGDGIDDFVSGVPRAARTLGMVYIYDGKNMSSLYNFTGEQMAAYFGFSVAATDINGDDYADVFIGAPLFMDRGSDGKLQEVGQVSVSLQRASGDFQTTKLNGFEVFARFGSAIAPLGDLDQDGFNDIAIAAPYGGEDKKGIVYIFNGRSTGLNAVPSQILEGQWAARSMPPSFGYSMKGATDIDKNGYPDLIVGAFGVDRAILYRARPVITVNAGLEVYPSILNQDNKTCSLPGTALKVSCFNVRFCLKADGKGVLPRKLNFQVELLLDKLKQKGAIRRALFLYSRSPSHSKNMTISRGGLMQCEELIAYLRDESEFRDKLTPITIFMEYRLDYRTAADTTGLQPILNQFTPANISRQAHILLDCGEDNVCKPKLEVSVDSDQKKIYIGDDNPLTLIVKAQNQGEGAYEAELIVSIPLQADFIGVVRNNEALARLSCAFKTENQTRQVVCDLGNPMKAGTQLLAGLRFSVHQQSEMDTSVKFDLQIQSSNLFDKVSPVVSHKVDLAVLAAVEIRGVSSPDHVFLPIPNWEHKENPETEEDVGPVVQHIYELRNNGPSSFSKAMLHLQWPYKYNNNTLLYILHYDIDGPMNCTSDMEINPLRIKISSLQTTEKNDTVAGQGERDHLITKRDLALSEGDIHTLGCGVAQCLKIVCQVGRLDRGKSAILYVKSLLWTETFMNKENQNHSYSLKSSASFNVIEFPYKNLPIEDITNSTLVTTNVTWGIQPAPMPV
T1 sequence (P18084 24-719 limits assumed): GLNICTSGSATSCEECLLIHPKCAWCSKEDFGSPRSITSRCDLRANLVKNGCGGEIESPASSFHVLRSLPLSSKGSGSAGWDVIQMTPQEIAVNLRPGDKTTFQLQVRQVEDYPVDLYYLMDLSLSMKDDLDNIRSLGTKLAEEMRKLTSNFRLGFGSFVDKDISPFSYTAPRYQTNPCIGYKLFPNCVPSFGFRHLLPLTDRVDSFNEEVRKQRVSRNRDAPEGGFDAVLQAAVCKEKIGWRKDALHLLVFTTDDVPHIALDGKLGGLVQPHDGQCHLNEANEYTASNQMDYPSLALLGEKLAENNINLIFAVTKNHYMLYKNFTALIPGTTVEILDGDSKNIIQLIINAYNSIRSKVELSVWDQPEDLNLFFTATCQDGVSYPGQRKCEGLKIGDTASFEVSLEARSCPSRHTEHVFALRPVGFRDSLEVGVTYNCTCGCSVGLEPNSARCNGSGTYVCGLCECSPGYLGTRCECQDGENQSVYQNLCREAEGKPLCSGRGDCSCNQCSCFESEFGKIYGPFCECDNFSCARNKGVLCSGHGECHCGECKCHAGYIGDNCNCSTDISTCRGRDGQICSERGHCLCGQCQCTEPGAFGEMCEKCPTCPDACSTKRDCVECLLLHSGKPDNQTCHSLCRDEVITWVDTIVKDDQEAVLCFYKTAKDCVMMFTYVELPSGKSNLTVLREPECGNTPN
Source text: Four different soluble integrins were supplied by Celltech plc. Soluble forms of αvβ3, αvβ5, α5β1, and αIIbβ3 integrin were generated by constructing chimeras comprising the extracellular domain of αvβ3, αvβ5, α5β1, and αIIbβ3 linked to the Fc domain of either mouse IgG (αvβ3-mFc, αvβ5-mFc, and αIIbβ3-mFc) or human IgG (α5β1-hFc) as described by Stephens et al., Cell Adhes. Commun., 7:377-390 (2000) and Coe et al., J. Biol. Chem., 276:35854-35866 (2001). Since the four soluble integrin chimeras were supplied either as purified proteins (αvβ3-mFc and α5β1-hFc) or as unpurified hybridoma supernatants (αIIbβ3-mFc and αvβ5-mFc), it was necessary to use two types of ELISAs. […] In one type of ELISA (FIGS. 2A and 2B), the immobilized component is a 50 kDa fragment of fibronectin. In the second type of ELISA (FIGS. 2C and 2D), the immobilized component is a goat anti-mFc antibody that is used to capture chimeric proteins so that the RGD binding site of the integrin is maximally exposed. Each three-sided box in FIG. 2 represents a single well of a 96-well plate, and the components are listed in the sequence of their addition to the assay. The immobilized component at the bottom of the well is bound to the well by electrostatic interactions.
To analyze the affinity and selectively of RGD peptides for αIIbβ3 and αvβ5, 96-well ELISA plates were coated with anti-murine Fc antibody at 5 μg/ml in PBS, 100 μl per well and left overnight at 4° C. The plates were washed with PBS using a Denley Wellwash 4 Mk 2. Washing was repeated twice with a 400 μl wash per well. 200 μl/well of blocking buffer was then added for 1 hour followed by a repeat washing with PBS. 100 μl of tissue culture supernatant from cells secreting soluble αIIbβ3-mFc or αvβ5-mFc, diluted 1:2 in conjugate buffer, was added to each well. Plates were incubated with shaking for 1 hour followed by two washes with PBS. 100 μl of an RGD peptide (at concentrations of 200, 20, and 2 μM), followed by either 100 μl of biotinylated fibrinogen (at 1 μg/ml in conjugate buffer) or 100 μl of biotinylated vitronectin (at 2 μg/ml in conjugate buffer) were added to each well and incubated for 2 hours with shaking. After incubation, the plates were washed with PBS as described above. 100 μl of neutravidin-peroxidase was added to each well and the plates were incubated for 30 minutes with shaking, followed by two washes with PBS. 100 μl of TMB substrate was added to each well and the plates were shaken during color development. Plates were read using a plate spectrophotometer at 630 nm.
Two negative and two positive controls were used in both types of ELISAs. For example, the negative controls were wells that contained 50 μl of an active control peptide, integrin, and biotinylated ligand or 50 μl of the active control peptide and 50 μl of buffer. These negative control wells typically develop little to no color. […] These wells typically develop the maximum amount of color.
FIGS. 3-6 illustrate the percent binding of the vitronectin, fibronectin, or fibrinogen ligand to αvβ5, α5β1, αIIbβ3, or αvβ3 integrin in the presence of RGD peptides (i.e., linear (A), cyclic (B), or 4-[^19F]-fluorobenzoyl cyclic (C)) at different concentrations, with 100% maximum signal being the signal obtained in the absence of the peptide.

A375M melanoma cell line [1] = experiment: Adhesion assay: [51Cr]-A375M cells to vitronectin; assay type: cell-based, human; settings: 20 μM peptide
Protocol: (§1) RGD peptides were plated at a maximum concentration of 200 μM and a minimum concentration of 2 nM. For each RGD peptide sequence, linear peptides (A), cyclic peptides (B), and 4-[^19F]-fluorobenzoyl cyclic peptides (C) were assayed. Each RGD peptide concentration was performed in quadruplicate and each experiment was repeated twice.
(§2) Plastic 96-well plates (Falcon 3912; Becton Dickinson) were coated with 50 μl substrate (10 μg/ml laminin or 5 μg/ml vitronectin). The plates were incubated at 37° C. in an 8% CO2 atmosphere for 1 hour. Unbound protein was flicked off and the plates were washed with phosphate buffered saline (PBS) and blocked with bovine serum albumin (0.1% w/v BSA)/PBS/0.1% sodium azide) for 1 hour. The plates were then washed with PBS, placed on a bed of ice and 25 μl of peptide was added to the wells.
Sodium [^51Cr] chromate was purchased from Amersham International, UK. […]
25 μl (about 10,000 cells) were added to each quadruplicate well and the plates incubated at 37° C. in an 8% CO2 atmosphere for 1 hour. […] The radioactivity associated with each well was determined in a gamma counter (1261 Multigamma; Wallac, Sweden). Quadruplicate 25 μl samples of labeled cells were counted as 100% input values. To determine non-specific binding, the ability of cells to bind BSA-coated wells was also assessed. […]
The results were calculated as follows: [formula] […]

A375M melanoma cell line [2] = experiment: Adhesion assay: [51Cr]-A375M cells to laminin; assay type: cell-based, human; settings: 200 μM peptide
Protocol: as §1, §2
Sodium [^51Cr] chromate was purchased from Amersham International, UK. The solution was made isotonic by the addition of 110 μl 10× Hanks buffered salt solution. 100 μl of this solution (3.7 MBq) was added to 5-10×10^6 cells in 500 μl of serum-containing growth medium. The suspension was incubated at 37° C. for 45 minutes with regular agitation to resuspend the cells. The cells were then washed and spun 3 times with serum-free E4 medium to remove any free [^51Cr]chromium. A trypan blue viability count was performed and the cells were diluted to the necessary volume in serum-free E4 medium (4×10^5 cells/ml).
25 μl (about 10,000 cells) were added to each quadruplicate well and the plates incubated at 37° C. in an 8% CO2 atmosphere for 1 hour. Unbound cells were flicked off and the plates were washed twice with PBS/BSA containing 1 mM CaCl2 and 0.5 mM MgCl2. The plates were dabbed dry and cut into individual wells. The radioactivity associated with each well was determined in a gamma counter (1261 Multigamma; Wallac, Sweden). Quadruplicate 25 μl samples of labeled cells were counted as 100% input values. To determine non-specific binding, the ability of cells to bind BSA-coated wells was also assessed. Data for these wells are referred to as background.
The results were calculated as follows: [formula] [formula] NMR Spectroscopy of RGD Peptides
The A375M and VUP melanoma cell lines were used with vitronectin and laminin as substrates. Peptides were titrated in 10-fold dilutions from 200 μM to 2 nM. All data were normalized to the absence of peptide, which corresponded to 100% adhesion. All titrations were performed in quadruplicate and each experiment was repeated at least twice.

RGDY(OMe)K [B7] was tested. Which “vitronectin binding to αvβ5, % of the maximum signal” value (αvβ5 integrin) did it give?
Its value is 32.8%.

What about the “adhesion of [51Cr]-A375M cells to vitronectin, normalized to absence of peptide (100%)” value (A375M melanoma cell line [1]) of the same substance?
The value was 72.79%±0.04%.

And the “adhesion of [51Cr]-A375M cells to laminin, normalized to absence of peptide (100%)” value (A375M melanoma cell line [2])?
Its value is 50.40%±1.24%.
